In one test the target is T1, HDAC6 (Homo sapiens, UniProt Q9UBN7).
T1 construct: endogenous in cells; host or cells: MM1S (ATCC CRL-2974)
T1 sequence (Q9UBN7 1-1215): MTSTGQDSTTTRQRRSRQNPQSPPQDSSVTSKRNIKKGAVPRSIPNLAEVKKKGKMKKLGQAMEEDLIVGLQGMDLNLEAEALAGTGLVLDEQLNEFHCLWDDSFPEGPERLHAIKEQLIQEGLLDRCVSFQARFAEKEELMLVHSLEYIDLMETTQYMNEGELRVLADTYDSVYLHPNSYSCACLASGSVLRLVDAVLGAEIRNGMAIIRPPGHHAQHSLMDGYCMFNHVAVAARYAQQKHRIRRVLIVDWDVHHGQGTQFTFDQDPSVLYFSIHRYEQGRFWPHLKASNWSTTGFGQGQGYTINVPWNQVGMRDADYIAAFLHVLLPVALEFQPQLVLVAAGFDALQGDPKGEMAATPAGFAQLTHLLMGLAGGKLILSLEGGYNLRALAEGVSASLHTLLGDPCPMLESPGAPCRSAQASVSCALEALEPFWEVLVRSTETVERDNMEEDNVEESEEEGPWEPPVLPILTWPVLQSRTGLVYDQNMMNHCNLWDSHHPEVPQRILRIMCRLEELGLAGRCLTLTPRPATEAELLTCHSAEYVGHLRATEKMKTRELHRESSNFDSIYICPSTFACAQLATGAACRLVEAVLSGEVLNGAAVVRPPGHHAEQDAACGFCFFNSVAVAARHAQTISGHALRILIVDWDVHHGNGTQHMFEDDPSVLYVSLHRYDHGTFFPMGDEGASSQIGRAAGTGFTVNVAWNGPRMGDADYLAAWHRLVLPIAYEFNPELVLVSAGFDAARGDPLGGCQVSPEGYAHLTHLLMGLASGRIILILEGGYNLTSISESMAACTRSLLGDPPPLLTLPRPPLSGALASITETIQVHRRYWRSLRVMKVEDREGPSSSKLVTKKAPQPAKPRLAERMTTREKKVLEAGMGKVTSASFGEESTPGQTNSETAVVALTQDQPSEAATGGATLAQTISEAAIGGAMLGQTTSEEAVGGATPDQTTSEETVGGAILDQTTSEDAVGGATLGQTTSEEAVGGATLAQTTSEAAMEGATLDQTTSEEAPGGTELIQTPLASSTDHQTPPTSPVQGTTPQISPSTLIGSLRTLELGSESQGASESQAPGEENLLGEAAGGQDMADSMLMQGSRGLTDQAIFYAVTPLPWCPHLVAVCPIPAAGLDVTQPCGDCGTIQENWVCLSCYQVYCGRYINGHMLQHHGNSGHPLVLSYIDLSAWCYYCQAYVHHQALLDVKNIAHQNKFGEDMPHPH
Nature of the test: Immunoblot of HDAC6 degradation in MM.1S cells (second generation degraders). Type of test: cell-based. As to conditions: 6 nM. How it is done: FIG. 6A: Immunoblot showing degradation activity of 18x, 18a, and 18b against HDAC1, HDAC2, HDAC4, and HDAC6 (with β-actin as a control) at serial dilutions of 10 μM, 1 μM, and 100 nM.
FIG. 6B: Immunoblot showing degradation activity of 20a, 20b, 20c, 18c, 18a, and 18b against HDAC4 and HDAC6 (with α-tubulin as a control) at dilutions of 5 nM and 1 nM.
FIG. 6C: Immunoblot showing degradation activity of 18b and 9C against HDAC1, HDAC2, HDAC4, HDAC6, and HDAC8 (with β-actin as a control) at dilutions of 6, 19, 56, 167, and 500 nM.
Some of these HDAC6 degraders could degrade HDAC6 selectively at low nM concentrations in MM.
When the cells reached 90% confluence, they were harvested and plated 1×10^6 cells per well in 6-well plate. After overnight seeding, the cells were treated with a solution of compounds or vehicle in culture medium. The culture medium was removed after treatment and then washed twice with cold PBS. […] Protein concentration was measured by using the Pierce BCA protein assay (Thermo Fisher Scientific). […] The Immunoblot was generated by ChemiDoc MP Imaging Systems (Bio-Rad) and analyzed by Image J software (only available for download online at https://imagej.net/Downloads). […]
(In western blotting, separated proteins are transferred to a membrane and probed.)

In the next test the test system is acetylated tubulin. Nature of the test: Western blot of acetylated tubulin in MM1S cells. The class given is cell-based, human. As to conditions: 100 nM. The source says:
FIGS. 12A, 12B, and 12C are a series of western blots showing that degrader 12d selectively promotes HDAC6 degradation in MM1S cells.
To further examine the selectivity of the new generation of HDAC6 degraders, compound 12d was compared to SAHA, Next-A, degrader 1 and pan-inhibitor 2 for change of acetylated a-tubulin and acetylated histone H3.
When the cells reached 90% confluence, they were harvested and plated 1×10^6 cells per well in 6-well plate. After overnight seeding, the cells were treated with a solution of compounds or vehicle in culture medium. The culture medium was removed after treatment and then washed twice with cold PBS. To obtain whole cell lysate, all cells were treated with RIPA lysis buffer (25 mM Tris, pH 7-8, 150 mM NaCl, 0.1% SDS, 0.5% sodium deoxycholate, 1% Triton X-100, protease inhibitor cocktail (Roche, 1 tablet per 10 mL) and 1 mM PMSF) on ice for 10 minutes. Supernatant was collected after spinning down at 16,000 g at 4° C. for 15 minutes. Protein concentration was measured by using the Pierce BCA protein assay (Thermo Fisher Scientific). About 10-40 μg of total protein was mixed with 4× Laemmli Loading Dye (250 mM Tris, pH 6.8, 40% glycerol, 5% SDS, 0.005% bromophenol blue, 4% BME) and heated at 95-100° C. for 5 minutes. The heated sample was then subjected to 7.5-12% SDS-PAGE and transferred to PVDF membrane (Bio-Rad,). The membrane was blocked in 5% non-fat milk (Bio-rad) in TBS-T washing buffer (137 mM NaCl, 20 mM Tris, 0.1% Tween) and then incubated with primary antibodies at 4° C. overnight. […] The Immunoblot was generated by ChemiDoc MP Imaging Systems (Bio-Rad) and analyzed by Image J software (only available for download online at https://imagej.net/Downloads). […]
The activity of all eleven “n+4” VHL-based potential degraders to suppress HDAC6 expression was tested at 100 nM and compared to CRBN degrader 2 in MM1S cells. The resulting cells were analyzed for HDAC6 expression by in-cell ELISA (FIG. 15). […]

Each structure is given as a SMILES string.

As for `CCCCN(Cc1ccc(C(=O)NO)cc1)C(=O)Nc1ccc(OCCCn2cc(CNc3ccc4c(c3)C(=O)N(C3CCC(=O)NC3=O)C4=O)nn2)cc1` (stereo not drawn) [Compound 12m, 4-((1-butyl-3-(4-(3-(4-(((2-(2,6-dioxopiperidin-3-yl)-1,3-dioxoisoindolin-5-yl)amino)methyl)-1H-1,2,3-triazol-1-yl)propoxy)phenyl)ureido)methyl)-N-hydroxybenzamide], the HDAC6 depletion result at HDAC6 is reported as “completely depleted”.

In the case of `CCCCN(Cc1ccc(C(=O)NO)cc1)C(=O)Nc1ccccc1` [Next-A, 4-[[butyl[(phenylamino)carbonyl]amino]methyl]-N-hydroxy-benzamide, reference compound], the “change of acetylated tubulin” value with acetylated tubulin was “didn't”.

As to `CCCCN(Cc1ccc(C(=O)NO)cc1)C(=O)Nc1ccc(OCCCCCn2cc(CNc3cccc4c3C(=O)N(C3CCC(=O)NC3=O)C4=O)nn2)cc1` (stereo not drawn) [Compound 12d, 4-((1-butyl-3-(4-((5-(4-(((2-(2,6-dioxopiperidin-3-yl)-1,3-dioxoisoindolin-4-yl)amino)methyl)-1H-1,2,3-triazol-1-yl)pentyl)oxy)phenyl)ureido)methyl)-N-hydroxybenzamide], in the test with acetylated tubulin, the “change of acetylated tubulin” value is “increased”.

Source of the values: patent US11059815B2, “Synthesis of small molecule histone deacetylase 6 degraders, compounds formed thereby, and pharmaceutical compositions containing them” (Wisconsin Alumni Research Foundation, priority 2018, dated 2021).
